Patent US4684664A, “Derivatives of β-(4-isocyano-1,2,3,4-diepoxycyclopentyl) acrylic acid” (Kureha Kagaku Kogyo Kabushiki Kaisha, priority 1984, dated 1987)
Converted amounts (≈) assume the structure as drawn.

What was measured:
Format in all cases: cell-based
[1] = test system: Staphylococcus aureus FDA 209PJc-1; experiment: Antibacterial activity, agar-dilution MIC, organism No. 1; conditions: Staphylococcus aureus, FDA209PJC1; Organism No. 1, bouillon-agar; read-out: Minimum Inhibitory Concentration
Outline: (§1)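 Read-out is the minimum inhibitory concentration, given as μg/ml of the culture medium, obtained by agar dilution using bouillon agar.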

[2] = test system: Staphylococcus aureus Terajima; experiment: Antibacterial activity, agar-dilution MIC, organism No. 2; conditions: Staphylococcus aureus; Organism No. 2, bouillon-agar; read-out: Minimum Inhibitory Concentration
Outline: as §1

[3] = test system: Staphylococcus aureus MS 353; experiment: Antibacterial activity, agar-dilution MIC, organism No. 3; conditions: Staphylococcus aureus, MS353; Organism No. 3, bouillon-agar; read-out: Minimum Inhibitory Concentration
Outline: as §1

[4] = test system: Escherichia coli NIHJ-JC-2; experiment: Antibacterial activity, agar-dilution MIC, organism No. 5; conditions: Escherichia coli, NIHJJC2; Organism No. 5, bouillon-agar; read-out: Minimum Inhibitory Concentration
Outline: as §1

[5] = test system: Escherichia coli K12 C600 IAM 1264; experiment: Antibacterial activity, agar-dilution MIC, organism No. 6; conditions: Escherichia coli, IAM1264; Organism No. 6, bouillon-agar; read-out: Minimum Inhibitory Concentration
Outline: as §1

[6] = test system: Klebsiella pneumoniae PCI-602; experiment: Antibacterial activity, agar-dilution MIC, organism No. 7; conditions: Klebsiella pneumoniae, PCI602; Organism No. 7, bouillon-agar; read-out: Minimum Inhibitory Concentration
Outline: as §1

[7] = test system: Salmonella typhimurium IID 971; experiment: Antibacterial activity, agar-dilution MIC, organism No. 8; conditions: Salmonella enterica; Organism No. 8, bouillon-agar; read-out: Minimum Inhibitory Concentration
Outline: as §1

Salmonella typhi 901 = experiment: Antibacterial activity, agar-dilution MIC, organism No. 9; conditions: Salmonella enterica, TYPHI, read-out: Minimum Inhibitory Concentration
Outline: as §1

[8] = test system: Salmonella paratyphi-A 1015; experiment: Antibacterial activity, agar-dilution MIC, organism No. 10; conditions: Salmonella enterica, PARATYPHI, read-out: Minimum Inhibitory Concentration
Outline: as §1

[9] = test system: Salmonella shottmuelleri 8006; experiment: Antibacterial activity, agar-dilution MIC, organism No. 11; conditions: Salmonella, 8006; Organism No. 11, bouillon-agar; read-out: Minimum Inhibitory Concentration
Outline: as §1

[10] = test system: Salmonella enteritidis G 14; experiment: Antibacterial activity, agar-dilution MIC, organism No. 12; conditions: Salmonella enterica, ENTERITIDIS; Organism No. 12, bouillon-agar; read-out: Minimum Inhibitory Concentration
Outline: as §1

[11] = test system: Serratia marcescens IAM 1184; experiment: Antibacterial activity, agar-dilution MIC, organism No. 13; conditions: Serratia marcescens, IAM1184; Organism No. 13, bouillon-agar; read-out: Minimum Inhibitory Concentration
Description: Agar-dilution method was used for determination of the antibacterial activity and antifungal activity while using bouillon-agar culture medium, and the minimum inhibitory concentration of the specimen was expressed by μg/ml of the culture medium.

[12] = test system: Bacillus subtilis ATCC 6633; experiment: Antibacterial activity, agar-dilution MIC, organism No. 14; conditions: Bacillus subtilis, ATCC6633; Organism No. 14, bouillon-agar; read-out: Minimum Inhibitory Concentration
Outline: as §1

[13] = test system: Pseudomonas aeruginosa IFO 3445; experiment: Antibacterial activity, agar-dilution MIC, organism No. 15; conditions: Pseudomonas aeruginosa, IFO3445; Organism No. 15, bouillon-agar; read-out: Minimum Inhibitory Concentration
Outline: as §1

[14] = test system: Pseudomonas aeruginosa NCTC 10490; experiment: Antibacterial activity, agar-dilution MIC, organism No. 16; conditions: Pseudomonas aeruginosa, NCTC10490; Organism No. 16, bouillon-agar; read-out: Minimum Inhibitory Concentration
Outline: as §1

[15] = test system: Pseudomonas aeruginosa PAO 1; experiment: Antibacterial activity, agar-dilution MIC, organism No. 17; conditions: Pseudomonas aeruginosa, PAO1; Organism No. 17, bouillon-agar; read-out: Minimum Inhibitory Concentration
Outline: as §1

[16] = test system: Proteus morganii IFO 3848; experiment: Antibacterial activity, agar-dilution MIC, organism No. 18; conditions: Morganella morganii, IFO3848; Organism No. 18, bouillon-agar; read-out: Minimum Inhibitory Concentration
Outline: as §1

[17] = test system: Proteus mirabilis IFO 3849; experiment: Antibacterial activity, agar-dilution MIC, organism No. 19; conditions: Proteus mirabilis, IFO3849; Organism No. 19, bouillon-agar; read-out: Minimum Inhibitory Concentration
Outline: as §1

Proteus vulgaris OX-19 = experiment: Antibacterial activity, agar-dilution MIC, organism No. 20; conditions: Proteus vulgaris, OX19; Organism No. 20, bouillon-agar; read-out: Minimum Inhibitory Concentration
Outline: as §1

Proteus vulgaris HX-19 = experiment: Antibacterial activity, agar-dilution MIC, organism No. 21; conditions: Proteus vulgaris, HX19; Organism No. 21, bouillon-agar; read-out: Minimum Inhibitory Concentration
Outline: as §1

[18] = test system: Proteus rettgeri IFO 3850; experiment: Antibacterial activity, agar-dilution MIC, organism No. 22; conditions: Providencia rettgeri, IFO3850; Organism No. 22, bouillon-agar; read-out: Minimum Inhibitory Concentration
Outline: as §1

[19] = test system: Enterobacter aerogenes ATCC 13048; experiment: Antibacterial activity, agar-dilution MIC, organism No. 23; conditions: Klebsiella aerogenes, ATCC13048; Organism No. 23, bouillon-agar; read-out: Minimum Inhibitory Concentration
Outline: as §1

Enterobacter cloacae 963 = experiment: Antibacterial activity, agar-dilution MIC, organism No. 24; conditions: Enterobacter cloacae, 963; Organism No. 24, bouillon-agar; read-out: Minimum Inhibitory Concentration
Outline: as §1

[20] = test system: Micrococcus luteus ATCC 9341; experiment: Antibacterial activity, agar-dilution MIC, organism No. 25; conditions: Micrococcus luteus, ATCC9341; Organism No. 25, bouillon-agar; read-out: Minimum Inhibitory Concentration
Outline: as §1

[21] = test system: Streptococcus pyogenes IFO 3340; experiment: Antibacterial activity, agar-dilution MIC, organism No. 26; conditions: Streptococcus pyogenes, IFO3340; Organism No. 26, bouillon-agar; read-out: Minimum Inhibitory Concentration
Outline: as §1

[22] = test system: Streptococcus faecium IFO 3826; experiment: Antibacterial activity, agar-dilution MIC, organism No. 27; conditions: Enterococcus faecium, IFO3826; Organism No. 27, bouillon-agar; read-out: Minimum Inhibitory Concentration
Outline: as §1

[23] = test system: Mycoplasma pneumoniae IID817; experiment: Antimycoplasmal activity, MIC by phenol red colour change, organism No. 28; conditions: Mycoplasma, IID817; Organism No. 28, PPLO broth + 1% glucose, 37° C.; read-out: Minimum Inhibitory Concentration (MIC)
Protocol: Mycoplasma pneumoniae IID817 was used as the test microorganism in a culture medium prepared by adding 1% of glucose to "PPLO broth (manufactured by Difco Co.) liquid culture medium" at 37° C. with phenol red as an indicator, thereby culturing the test microorganism.

[24] = test system: Candida albicans IAM 4905; experiment: Antifungal activity, agar-dilution MIC, organism No. 29; conditions: Candida albicans, IAM4905; Organism No. 29, bouillon-agar; read-out: Minimum Inhibitory Concentration
Outline: as §1

[25] = test system: Aspergillus niger IFO 6342; experiment: Antifungal activity, agar-dilution MIC, organism No. 30; conditions: Aspergillus niger, IFO6342; Organism No. 30, bouillon-agar; read-out: Minimum Inhibitory Concentration
Outline: as §1

Row | Compound | MIC [1] [µg/mL] | MIC [2] [µg/mL] | MIC [3] [µg/mL] | MIC [4] [µg/mL] | MIC [5] [µg/mL] | MIC [6] [µg/mL] | MIC [7] [µg/mL] | MIC (Salmonella typhi 901) [µg/mL] | MIC [8] [µg/mL] | MIC [9] [µg/mL] | MIC [10] [µg/mL] | MIC [11] [µg/mL] | MIC [12] [µg/mL] | MIC [13] [µg/mL] | MIC [14] [µg/mL] | MIC [15] [µg/mL] | MIC [16] [µg/mL] | MIC [17] [µg/mL] | MIC (Proteus vulgaris OX-19) [µg/mL] | MIC (Proteus vulgaris HX-19) [µg/mL] | other results
1 | [C-]#[N+]C12CC3(/C=C/C(=O)Nc4ccccc4N)OC3C1O2 (stereo not shown) [compound 61] | 3.13 (≈ 11 µM) | 12.5 (≈ 44.1 µM) | 3.13 (≈ 11 µM) | 12.5 (≈ 44.1 µM) | 12.5 (≈ 44.1 µM) | 1.56 (≈ 5.51 µM) | 6.25 (≈ 22.1 µM) | 3.13 (≈ 11 µM) | 3.13 (≈ 11 µM) | 3.13 (≈ 11 µM) | 3.13 (≈ 11 µM) | 25 (≈ 88.2 µM) | 25 (≈ 88.2 µM) | > 200 | > 200 | > 200 | 3.13 (≈ 11 µM) | 12.5 (≈ 44.1 µM) | 3.13 (≈ 11 µM) | 1.56 (≈ 5.51 µM) | MIC [18]: 3.13 µg/mL (≈ 11 µM); MIC [19]: > 200 µg/mL; MIC (Enterobacter cloacae 963): 100 µg/mL (≈ 353 µM); MIC [20]: 0.78 µg/mL (≈ 2.75 µM); MIC [21]: 6.25 µg/mL (≈ 22.1 µM); MIC [22]: 100 µg/mL (≈ 353 µM); MIC [23]: < 0.2 µg/mL; MIC [24]: 25 µg/mL (≈ 88.2 µM); MIC [25]: 100 µg/mL (≈ 353 µM)
2 | [C-]#[N+]C12CC3(/C=C/C(=O)Nc4ccc(C(F)(F)F)cc4)OC3C1O2 (stereo not shown) [compound 46] | 0.1 (≈ 0.297 µM) | 0.39 (≈ 1.16 µM) | < 0.05 | > 200 | > 200 | 0.39 (≈ 1.16 µM) | 50 (≈ 149 µM) | 50 (≈ 149 µM) | 0.78 (≈ 2.32 µM) | 0.78 (≈ 2.32 µM) | 25 (≈ 74.3 µM) | 200 (≈ 595 µM) | 6.25 (≈ 18.6 µM) | > 200 | > 200 | > 200 | 1.56 (≈ 4.64 µM) | > 200 | 0.39 (≈ 1.16 µM) | 0.39 (≈ 1.16 µM) | MIC [18]: 200 µg/mL (≈ 595 µM); MIC [19]: > 200 µg/mL; MIC (Enterobacter cloacae 963): > 200 µg/mL; MIC [20]: < 0.05 µg/mL; MIC [21]: 3.13 µg/mL (≈ 9.31 µM); MIC [22]: > 200 µg/mL; MIC [23]: < 0.2 µg/mL; MIC [24]: 1.56 µg/mL (≈ 4.64 µM); MIC [25]: 3.13 µg/mL (≈ 9.31 µM)
